Results published in US20150174213A1, “COMPOSITIONS COMPRISING SULFORAPHANE OR A SULFORAPHANE PRECURSOR AND URSOLIC ACID” (Nutramax Laboratories, Inc., priority 2012, published 2015).
One block for each compound: values may come before it.

Assays:
mammary tumors = conditions: Sprague-Dawley rats; cited from earlier work
mammary epithelium = conditions: oral administration, Sprague-Dawley rats; cited from earlier work
myrosinase [1] = assay: Conversion of glucoraphanin to sulforaphane in Simulated Intestinal Fluid (Example 5); type: biochemical, broccoli; conditions: 0.25 to 1.00 mmol/Liter ascorbic acid, 38° C., FIG. 4
Procedure: Simulated Intestinal Fluid (SIF) powder, a commercially supplied concentrate closely approximating the human intestinal content in terms of composition, pH and ionic strength, was used. The experiment utilized a USP Dissolution Apparatus 2 (paddles), where into six dissolution vessels 500 mL of Simulated Intestinal Fluid was dispensed, along with 150 mg of freeze-dried broccoli sprout powder as a source of myrosinase. […] Aliquots were withdrawn every 15 minutes, and assayed for sulforaphane.

myrosinase [2] = assay: Equimolar conversion of glucoraphanin to sulforaphane by myrosinase with ascorbic acid (Example 4); type: biochemical, broccoli; conditions: control sample, without ascorbic acid
Procedure: A two-part experiment was conducted to further elucidate the role of ascorbic acid in modulating myrosinase activity. […] A control sample contained no ascorbic acid, and the enzymatic conversion proceeded unassisted by a co-factor. PART 1. […] PART 2. While keeping the amount of broccoli seed extract fixed at 250 mg, the concentration of ascorbic acid was varied from 0.4 mmol/Liter to 3.8 mmol/Liter.

Structure (SMILES): C[S+]([O-])CCCCN=C=S (centres unmarked) [SFN, 1-isothiocyanato-4-methylsulfinylbutane]
Blocking the formation of mammary tumors (mammary tumors): effective
Elevated immunostaining of the heme oxygenase-1 (HO-1) enzyme (mammary epithelium): 4 fold
Increase in NAD(P)H:quinine oxidoreductase (NQO1) enzymatic activity (mammary epithelium): 3 fold

Structure (SMILES): O=C1O[C@H]([C@@H](O)CO)C(O)=C1O [Ascorbic Acid, Ascorbic acid]
Yield of sulforaphane versus ascorbic acid concentration (myrosinase [1]): direct correlation between larger yield of sulforaphane and higher concentrations of ascorbic acid

Stoichiometry of conversion of glucoraphanin to sulforaphane (myrosinase [2]): equimolar conversion
Structure (SMILES): C[S+]([O-])CCCC/C(=N\OS(=O)(=O)O)S[C@@H]1O[C@H](CO)[C@@H](O)[C@H](O)[C@H]1O (some centres unmarked) [glucoraphanin, 4-methylsulfinylbutyl glucosinolate]
